In PubChem BioAssay (NCI):
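These data come from cells grown in 96-well plates and exposed to compound for 48 hours at five concentrations. The concentration for full growth arrest is given as TGI.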

Tests used:
Test in all cases: inhibition of tumour cell growth, NCI panel, 48 h
[1] = test system: DMS 273 small cell lung
[2] = test system: HCC-2998 colon
[3] = test system: DMS 114 small cell lung
[4] = test system: UO-31 renal
[5] = test system: A549 NSCLC
[6] = test system: MOLT-4 leukemia
[7] = test system: OVCAR-8 ovarian
[8] = test system: NCI-H522 lung
[9] = test system: SNB-78 CNS
[10] = test system: SF-539 CNS
[11] = test system: HCT-15 colon
[12] = test system: HCT-116 colon
[13] = test system: SNB-75 CNS
[14] = test system: HL-60(TB) leukemia
[15] = test system: ACHN renal
[16] = test system: OVCAR-4 ovarian
[17] = test system: SN12C renal
[18] = test system: SK-MEL-2 melanoma
[19] = test system: RPMI-8226 leukemia
[20] = test system: KM12 colon
[21] = test system: HT29 colon
[22] = test system: NCI-H226 lung
[23] = test system: CAKI-1 renal
[24] = test system: M19-MEL melanoma
[25] = test system: SNB-19 CNS
[26] = test system: SK-MEL-28 melanoma
[27] = test system: HOP-62 NSCLC
[28] = test system: COLO 205 colon
[29] = test system: SW-620 colon
[30] = test system: TK-10 renal
[31] = test system: OVCAR-3 ovarian
[32] = test system: SR leukemia
[33] = test system: NCI-H23 lung
[34] = test system: SK-MEL-5 melanoma
[35] = test system: SF-295 CNS
[36] = test system: LOX IMVI melanoma
[37] = test system: 786-0 renal
[38] = test system: UACC-257 melanoma
[39] = test system: CCRF-CEM leukemia
[40] = test system: U251 CNS
[41] = test system: NCI-H460 lung
[42] = test system: OVCAR-5 ovarian
[43] = test system: DLD-1 colon
[44] = test system: SF-268 CNS
[45] = test system: K-562 leukemia
[46] = test system: MALME-3M melanoma
[47] = test system: XF 498 CNS
[48] = test system: EKVX NSCLC
[49] = test system: RXF 393 renal
[50] = test system: UACC-62 melanoma
[51] = test system: KM20L2 colon
[52] = test system: A498 renal
[53] = test system: SK-OV-3 ovarian
[54] = test system: IGROV1 ovarian
[55] = test system: HOP-92 NSCLC
[56] = test system: M14 melanoma
[57] = test system: LXFL 529 NSCLC

## COc1ccccc1/C=C1\C(=O)N(C(=O)c2ccc(NC(C)=O)cc2)N=C1C
[1]
  TGI: > 100 µM
[2]
  TGI: > 100 µM
[3]
  TGI: > 100 µM
[4]
  TGI: > 100 µM
[5]
  TGI: > 100 µM
[6]
  TGI: > 100 µM
[7]
  TGI: > 100 µM
[8]
  TGI: > 100 µM
[9]
  TGI: > 100 µM
[10]
  TGI: > 100 µM
[11]
  TGI: > 100 µM
[12]
  TGI: > 100 µM
[13]
  TGI: > 100 µM
[14]
  TGI: > 100 µM
[15]
  TGI: > 100 µM
[16]
  TGI: > 100 µM
[17]
  TGI: > 100 µM
[18]
  TGI: > 100 µM
[19]
  TGI: > 100 µM
[20]
  TGI: > 100 µM
[21]
  TGI: > 100 µM
[22]
  TGI: > 100 µM
[23]
  TGI: > 100 µM
[24]
  TGI: > 100 µM
[25]
  TGI: > 100 µM
[26]
  TGI: > 100 µM
[27]
  TGI: > 100 µM
[28]
  TGI: > 100 µM
[29]
  TGI: > 100 µM
[30]
  TGI: > 100 µM
[31]
  TGI: > 100 µM
[32]
  TGI: > 100 µM
[33]
  TGI: > 100 µM
[34]
  TGI: > 100 µM
[35]
  TGI: > 100 µM
[36]
  TGI: > 100 µM
[37]
  TGI: > 100 µM
[38]
  TGI: > 100 µM
[39]
  TGI: > 100 µM
[40]
  TGI: > 100 µM
[41]
  TGI: > 100 µM
[42]
  TGI: > 100 µM
[43]
  TGI: > 100 µM
[44]
  TGI: > 100 µM
[45]
  TGI: > 100 µM
[46]
  TGI: > 100 µM
[47]
  TGI: > 100 µM
[48]
  TGI: > 100 µM

## CCN(CC)c1ccc2cc3ccc(=[N+](CC)CC)cc-3oc2c1
[49]
  TGI: 11.6 µM
[1]
  TGI: 2.49 µM
[2]
  TGI: 19 µM
[50]
  TGI: 9.36 µM
[3]
  TGI: 3.8 µM
[4]
  TGI: 8.52 µM
[5]
  TGI: 16.6 µM
[6]
  TGI: 2.09 µM
[7]
  TGI: 1.84 µM
[8]
  TGI: 5.7 µM
[9]
  TGI: 11.1 µM
[10]
  TGI: 5.12 µM
[11]
  TGI: 12.7 µM
[12]
  TGI: 1.77 µM
[13]
  TGI: 16.3 µM
[14]
  TGI: 0.532 µM
[51]
  TGI: 12.1 µM
[15]
  TGI: 7.39 µM
[16]
  TGI: 26.1 µM
[17]
  TGI: 2.33 µM
[18]
  TGI: 2.99 µM
[19]
  TGI: 3.16 µM
[20]
  TGI: 1.92 µM
[52]
  TGI: 29.8 µM
[21]
  TGI: 4.48 µM
[22]
  TGI: 15.4 µM
[53]
  TGI: 13.6 µM
[23]
  TGI: 18 µM
[25]
  TGI: 23.3 µM
[26]
  TGI: 10.3 µM
[27]
  TGI: 13.7 µM
[28]
  TGI: 2.05 µM
[29]
  TGI: 1.43 µM
[30]
  TGI: 17.2 µM
[31]
  TGI: 2.11 µM
[32]
  TGI: 1.52 µM
[33]
  TGI: 3.04 µM
[34]
  TGI: 7.76 µM
[35]
  TGI: 16.3 µM
[54]
  TGI: 8.36 µM
[36]
  TGI: 1.98 µM
[37]
  TGI: 7.73 µM
[55]
  TGI: 3.13 µM
[38]
  TGI: 10.4 µM
[39]
  TGI: 6.33 µM
[40]
  TGI: 2.02 µM
[41]
  TGI: 6.62 µM
[42]
  TGI: 19.6 µM
[43]
  TGI: 14.5 µM
[44]
  TGI: 2.75 µM
[45]
  TGI: > 100 µM
[46]
  TGI: 2.78 µM
[47]
  TGI: 7.99 µM
[56]
  TGI: 6.03 µM
[48]
  TGI: 19.9 µM
[57]
  TGI: 1.79 µM

## Cn1cc/c(=N\N=c2/ccn(C)c3ccccc23)c2ccccc21
[49]
  TGI: 27.5 µM
[1]
  TGI: 30 µM
[2]
  TGI: 29.2 µM
[50]
  TGI: 29.8 µM
[3]
  TGI: 27.7 µM
[4]
  TGI: 26.3 µM
[5]
  TGI: 30.6 µM
[6]
  TGI: 63.9 µM
[7]
  TGI: 28.5 µM
[8]
  TGI: 27.8 µM
[9]
  TGI: 33.3 µM
[10]
  TGI: 29.4 µM
[11]
  TGI: 29.2 µM
[12]
  TGI: 23.4 µM
[13]
  TGI: 61.8 µM
[14]
  TGI: 21.6 µM
[51]
  TGI: 28.2 µM
[15]
  TGI: 27 µM
[16]
  TGI: 25.5 µM
[17]
  TGI: 33 µM
[20]
  TGI: 25.6 µM
[52]
  TGI: 37.2 µM
[21]
  TGI: 31.7 µM
[22]
  TGI: 25.8 µM
[53]
  TGI: 31 µM
[23]
  TGI: 33.2 µM
[24]
  TGI: 34.2 µM
[25]
  TGI: 36.3 µM
[26]
  TGI: 28.5 µM
[27]
  TGI: 31.6 µM
[28]
  TGI: 22.1 µM
[30]
  TGI: 36.4 µM
[31]
  TGI: 24 µM
[32]
  TGI: 47.3 µM
[33]
  TGI: 27.4 µM
[34]
  TGI: 29.4 µM
[35]
  TGI: 30.9 µM
[36]
  TGI: 24.2 µM
[37]
  TGI: 30.1 µM
[38]
  TGI: 27.3 µM
[39]
  TGI: 24.5 µM
[40]
  TGI: 29.1 µM
[41]
  TGI: 25 µM
[42]
  TGI: 30.3 µM
[43]
  TGI: 29.4 µM
[44]
  TGI: 39.2 µM
[45]
  TGI: 22.2 µM
[46]
  TGI: 31 µM
[47]
  TGI: 27.1 µM
[56]
  TGI: 30.8 µM
[48]
  TGI: 27.8 µM
[57]
  TGI: 27.2 µM
